In ChEMBL document CHEMBL3627616, “New multifunctional melatonin-derived benzylpyridinium bromides with potent cholinergic, antioxidant, and neuroprotective properties as innovative drugs for Alzheimer's disease” (Eur J Med Chem, 2015):
Active and inactive are the calls of the source. No cut-off for these calls is given here.

Assays:
Acetylcholinesterase [1] = target: T1, Acetylcholinesterase (Homo sapiens, UniProt P22303); test: Inhibition of human recombinant AChE using acetylthiocholine iodide as substrate preincubated for 5 mins followed by substrate addition by Ellman's method
Homo sapiens = organism: Homo sapiens; test: Selectivity ratio of IC50 for human serum BuChE to IC50 for human recombinant AChE
[2] = Antioxidant activity assessed as trolox equivalent of AAPH radical scavenging activity preincubated for 15 mins followed by addition of AAPH solution measured for 80 mins by ORAC-FL method; format: physicochemical
Cholinesterase = Cholinesterase (Homo sapiens, UniProt P06276)
Description: Inhibition of human serum BuChE using S-butyrylthiocholine iodide as substrate preincubated for 5 mins followed by substrate addition by Ellman's method

Acetylcholinesterase [3] = target: T1, Acetylcholinesterase; test: Potency index, ratio of IC50 for donepezil to IC50 for test compound for inhibition of human recombinant AChE
SH-SY5Y [4] = test: Cytotoxicity against human SH-SY5Y cells assessed as cell survival at 1 to 50 uM after 24 hrs by MTT assay; format: cell-based
SH-SY5Y [5] = test: Neuroprotective activity against H2O2-induced oxidative stress-associated death in human SH-SY5Y cells assessed as increase in cell viability at 1 to 10 uM incubated for 24 hrs prior to H2O2 challenge measured after 24 hrs by MTT assay; format: functional, cell-based
SH-SY5Y [6] = test: Neuroprotective activity against H2O2-induced oxidative stress-associated death in human SH-SY5Y cells assessed as increase in cell viability at 10 uM incubated for 24 hrs prior to H2O2 challenge measured after 24 hrs by MTT assay; format: functional, cell-based
[7] = Antioxidant activity assessed as trolox equivalent of AAPH radical scavenging activity; format: physicochemical
Acetylcholinesterase [8] = target: T1, Acetylcholinesterase; conditions: 0.05 to 0.2 uM

Sequence of Cholinesterase (P06276 whole entry): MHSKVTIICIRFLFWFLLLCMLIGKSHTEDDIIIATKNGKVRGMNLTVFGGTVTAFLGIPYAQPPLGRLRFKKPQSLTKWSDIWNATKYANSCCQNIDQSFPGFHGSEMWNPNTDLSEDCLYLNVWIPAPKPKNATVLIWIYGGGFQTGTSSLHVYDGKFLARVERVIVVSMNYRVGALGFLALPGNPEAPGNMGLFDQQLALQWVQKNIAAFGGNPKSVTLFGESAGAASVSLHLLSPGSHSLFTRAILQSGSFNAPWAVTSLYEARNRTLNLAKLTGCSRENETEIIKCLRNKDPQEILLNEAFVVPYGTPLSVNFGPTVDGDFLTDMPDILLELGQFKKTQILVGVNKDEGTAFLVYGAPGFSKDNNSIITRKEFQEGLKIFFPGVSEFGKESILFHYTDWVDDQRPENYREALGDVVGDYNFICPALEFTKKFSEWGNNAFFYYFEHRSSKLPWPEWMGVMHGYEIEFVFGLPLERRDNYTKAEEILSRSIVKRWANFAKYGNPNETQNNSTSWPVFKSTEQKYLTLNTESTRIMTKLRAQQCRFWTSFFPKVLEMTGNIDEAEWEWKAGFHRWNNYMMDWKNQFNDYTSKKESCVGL
T1 sequence (P22303 whole entry): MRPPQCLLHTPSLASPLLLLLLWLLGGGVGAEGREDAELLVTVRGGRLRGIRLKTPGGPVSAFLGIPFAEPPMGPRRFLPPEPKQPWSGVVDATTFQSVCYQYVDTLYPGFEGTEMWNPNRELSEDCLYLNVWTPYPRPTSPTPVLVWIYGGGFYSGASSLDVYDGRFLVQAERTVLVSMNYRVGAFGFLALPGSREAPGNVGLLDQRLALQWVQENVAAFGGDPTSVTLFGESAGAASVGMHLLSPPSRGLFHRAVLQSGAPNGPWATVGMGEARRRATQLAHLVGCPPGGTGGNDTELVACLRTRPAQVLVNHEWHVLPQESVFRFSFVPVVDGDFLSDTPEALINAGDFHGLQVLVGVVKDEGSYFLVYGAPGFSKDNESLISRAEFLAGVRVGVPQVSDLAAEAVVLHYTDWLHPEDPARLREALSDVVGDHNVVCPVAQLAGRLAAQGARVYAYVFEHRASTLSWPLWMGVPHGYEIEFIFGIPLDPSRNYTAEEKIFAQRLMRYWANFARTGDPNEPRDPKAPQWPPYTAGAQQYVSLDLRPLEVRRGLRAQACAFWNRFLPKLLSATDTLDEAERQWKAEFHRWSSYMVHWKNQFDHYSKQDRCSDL

Compound: O=C(NCCc1c[nH]c2ccccc12)c1cc[n+](Cc2ccccc2)cc1.[Br-]
- IC50 (Acetylcholinesterase [1]): 4.2 µM
- Ratio IC50 (Homo sapiens): 0.67
- Activity [2]: 1.29 umolequiv/umol
- IC50 (Cholinesterase): 2.8 µM

Compound: Cc1cccc(C[n+]2ccc(C(=O)NCCc3c[nH]c4ccccc34)cc2)c1.[Br-]
- IC50 (Acetylcholinesterase [1]): 2.7 µM
- Ratio IC50 (Homo sapiens): 2.1
- Activity [2]: 1.36 umolequiv/umol
- IC50 (Cholinesterase): 5.8 µM

Compound: COc1ccc2[nH]cc(CCNC(=O)/C=C/c3cc[n+](Cc4ccccc4F)cc3)c2c1.[Br-]
- IC50 (Acetylcholinesterase [1]): 0.26 µM
- Ratio IC50 (Homo sapiens): 8.8
- Activity [2]: 3.66 umolequiv/umol
- IC50 (Cholinesterase): 2.3 µM

Compound: COc1ccc2[nH]cc(CCNC(=O)c3cc[n+](Cc4ccc(F)cc4)cc3)c2c1.[Br-]
- IC50 (Acetylcholinesterase [1]): 5.1 µM
- Ratio IC50 (Homo sapiens): 1.5
- Activity [2]: 2.09 umolequiv/umol
- IC50 (Cholinesterase): 7.5 µM

Compound: COc1ccc2[nH]cc(CCNC(=O)c3cc[n+](Cc4ccc(OC(=O)N(C)C)cc4)cc3)c2c1.[Br-]
- IC50 (Acetylcholinesterase [1]): 1.3 µM
- Ratio IC50 (Homo sapiens): 0.06
- Ratio IC50 (Acetylcholinesterase [3]): 70
- Activity [2]: 2.04 umolequiv/umol
- Activity (SH-SY5Y [4]): Non-toxic
- Activity (SH-SY5Y [5]): Active
- IC50 (Cholinesterase): 0.08 µM

Compound: O=C(NCCc1c[nH]c2ccccc12)c1cc[n+](Cc2ccc(F)cc2)cc1.[Br-]
- IC50 (Acetylcholinesterase [1]): 3.4 µM
- Ratio IC50 (Homo sapiens): 1.4
- Activity [2]: 1.32 umolequiv/umol
- IC50 (Cholinesterase): 4.8 µM

Compound: O=C(NCCc1c[nH]c2ccccc12)c1ccc[n+](Cc2ccccc2)c1.[Br-]
- IC50 (Acetylcholinesterase [1]): 30.5 µM
- Ratio IC50 (Homo sapiens): 0.009
- Activity [2]: 1.49 umolequiv/umol
- IC50 (Cholinesterase): 0.28 µM

Compound: O=C(NCCc1c[nH]c2ccccc12)c1cc[n+](Cc2ccccc2F)cc1.[Br-]
- IC50 (Acetylcholinesterase [1]): 3.2 µM
- Ratio IC50 (Homo sapiens): 1.3
- Activity [2]: 1.14 umolequiv/umol
- IC50 (Cholinesterase): 4.1 µM

Compound: COc1ccc2[nH]cc(CCNC(C)=O)c2c1 [MELATONIN]
- Activity [2]: 2.34 umolequiv/umol
- Activity (SH-SY5Y [6]): Active
- Activity [7]: 2 umolequiv/umol

Compound: O=C(NCCc1c[nH]c2ccccc12)c1ccc[n+](Cc2ccccc2F)c1.[Br-]
- IC50 (Acetylcholinesterase [1]): 28.6 µM
- Ratio IC50 (Homo sapiens): 0.01
- Activity [2]: 1.47 umolequiv/umol
- IC50 (Cholinesterase): 0.34 µM

Compound: COc1ccc2[nH]cc(CCNC(=O)CCc3cc[n+](Cc4cccc(F)c4)cc3)c2c1.[Br-]
- IC50 (Acetylcholinesterase [1]): 0.44 µM
- Ratio IC50 (Homo sapiens): 1.6
- Activity [2]: 2.45 umolequiv/umol
- IC50 (Cholinesterase): 0.72 µM

Compound: Cc1ccc(C[n+]2ccc(C(=O)NCCc3c[nH]c4ccccc34)cc2)cc1.[Br-]
- IC50 (Acetylcholinesterase [1]): 5.7 µM
- Ratio IC50 (Homo sapiens): 1.6
- Activity [2]: 1.72 umolequiv/umol
- IC50 (Cholinesterase): 8.9 µM

Compound: COc1ccc2[nH]cc(CCNC(=O)/C=C/c3cc[n+](Cc4cccc(F)c4)cc3)c2c1.[Br-]
- IC50 (Acetylcholinesterase [1]): 0.11 µM
- Ratio IC50 (Homo sapiens): 10
- Activity [2]: 3.41 umolequiv/umol
- Activity (SH-SY5Y [4]): Non-toxic
- Activity (SH-SY5Y [5]): Active
- IC50 (Cholinesterase): 1.1 µM
- inhibition (Acetylcholinesterase [8]): Active

Compound: N#Cc1ccc(C[n+]2ccc(C(=O)NCCc3c[nH]c4ccccc34)cc2)cc1.[Br-]
- IC50 (Acetylcholinesterase [1]): 22.9 µM
- Ratio IC50 (Homo sapiens): > 4.4
- Activity [2]: 1.56 umolequiv/umol

Compound: COc1ccc2[nH]cc(CCNC(=O)/C=C/c3cc[n+](Cc4ccc(F)cc4)cc3)c2c1.[Br-]
- IC50 (Acetylcholinesterase [1]): 0.21 µM
- Ratio IC50 (Homo sapiens): 3.4
- Activity [2]: 3.51 umolequiv/umol
- IC50 (Cholinesterase): 0.71 µM

Compound: COc1ccc2[nH]cc(CCNC(=O)c3cc[n+](Cc4cccc(F)c4)cc3)c2c1.[Br-]
- IC50 (Acetylcholinesterase [1]): 3.8 µM
- Ratio IC50 (Homo sapiens): 2.1
- Activity [2]: 1.87 umolequiv/umol
- IC50 (Cholinesterase): 7.9 µM

Compound: COc1ccc2[nH]cc(CCNC(=O)CCc3cc[n+](Cc4ccc(F)cc4)cc3)c2c1.[Br-]
- IC50 (Acetylcholinesterase [1]): 0.58 µM
- Ratio IC50 (Homo sapiens): 1.1
- Activity [2]: 2.49 umolequiv/umol
- IC50 (Cholinesterase): 0.65 µM

Compound: COc1ccc2[nH]cc(CCNC(=O)CCc3cc[n+](Cc4ccccc4F)cc3)c2c1.[Br-]
- IC50 (Acetylcholinesterase [1]): 0.53 µM
- Ratio IC50 (Homo sapiens): 1.6
- Activity [2]: 2.51 umolequiv/umol
- IC50 (Cholinesterase): 0.86 µM

Compound: COc1ccc2[nH]cc(CCNC(=O)c3cc[n+](Cc4ccccc4F)cc3)c2c1.[Br-]
- IC50 (Acetylcholinesterase [1]): 3.3 µM
- Ratio IC50 (Homo sapiens): 2.1
- Activity [2]: 2.02 umolequiv/umol
- IC50 (Cholinesterase): 6.8 µM

Compound: O=C(NCCc1c[nH]c2ccccc12)c1cc[n+](Cc2cccc(F)c2)cc1.[Br-]
- IC50 (Acetylcholinesterase [1]): 3.9 µM
- Ratio IC50 (Homo sapiens): 1.3
- Activity [2]: 1.41 umolequiv/umol
- IC50 (Cholinesterase): 5.1 µM
